Columns and labels:
[1] = tested on: Green Peach Aphid (Myzus persicae) (GPA) (MYZUPE); assay: Bioassay for Green Peach Aphid (GPA) foliar spray on cabbage seedlings; type: in vivo; settings: 72 h, 200 ppm foliar spray on cabbage seedlings, graded after three days, Abbott corrected % control, read-out: GPA % Control (or Mortality) rating
Method: Bioassay for Green Peach Aphid (Myzus persicae) (GPA) (MYZUPE)
Cabbage seedlings grown in 3-inch pots, with 2-3 small (3-5 cm) true leaves, were used as test substrate. The seedlings were infested with 20-50 GPA (wingless adult and nymph stages) one day prior to chemical application. Four pots with individual seedlings were used for each treatment. Test compounds (2 mg) were dissolved in 2 mL of acetone/methanol (1:1) solvent, forming stock solutions of 1000 ppm test compound. The stock solutions were diluted 5× with 0.025% Tween 20 in H2O to obtain the solution at 200 ppm test compound. A hand-held aspirator-type sprayer was used for spraying a solution to both sides of cabbage leaves until runoff Reference plants (solvent check) were sprayed with the diluent only containing 20% by volume of acetone/methanol (1:1) solvent. Treated plants were held in a holding room for three days at approximately 25° C. and ambient relative humidity (RH) prior to grading. Evaluation was conducted by counting the number of live aphids per plant under a microscope. Percent control was measured by using Abbott's correction formula (W. S. Abbott, “A Method of Computing the Effectiveness of an Insecticide,” J. Econ. Entomol. 18 (1925), pp. 265-267) as follows Corrected % Control=100*(X−Y)/X
X=No. of live aphids on solvent check plants and
Y=No. of live aphids on treated plants.
Biological Data for Green Peach Aphid (GPA) (MYZUPE) and Sweetpotato Whitefly-crawler (WF) (BEMITA)” (see Table section).
(§1) The mortality efficiency of the pesticidal compounds against GPA and WF insects was determined after treatment.

[2] = tested on: Sweetpotato Whitefly-Crawler (WF) (Bemisia tabaci) (BEMITA); assay: Insecticidal test for Sweetpotato Whitefly-crawler (WF) in foliar spray assay on cotton plants; type: in vivo; settings: 216 h, 200 ppm foliar spray on cotton plants, graded after 9 days, Abbott corrected % control, read-out: WF % Control (or Mortality) rating
Method: Insecticidal Test for Sweetpotato Whitefly-Crawler (WF) (Bemisia tabaci) (BEMITA) in Foliar Spray Assay
Cotton plants (Gossypium hirsutum) grown in 3-inch pots, with 1 small (4-5 cm) true leaves, were used as test substrate. The plants were infested with 200-400 whitefly eggs 4-5 days prior to chemical application. Four pots with individual plants were used for each treatment. Test compounds (2 mg) were dissolved in 1 mL of acetone solvent, forming stock solutions of 2000 ppm test compound. The stock solutions were diluted 10× with 0.025% Tween 20 in H2O (diluents) to obtain the solution at 200 ppm test compound. A hand-held aspirator-type sprayer was used for spraying a solution to both sides of cotton leaves until runoff. Reference plants (solvent check) were sprayed with the diluent only containing 10% by volume of acetone solvent. Treated plants were held in a holding room for 9 days at approximately 25° C. and ambient relative humidity (RH) prior to grading. Evaluation was conducted by counting the number of live 3-4 nymph stage per plant under a microscope. Percent control was measured by using Abbott's correction formula (W. S. Abbott, “A Method of Computing the Effectiveness of an Insecticide,” J. Econ. Entomol. 18 (1925), pp. 265-267) as follows. Corrected % Control=100*(X−Y)/X
X=No. of live nymphs on solvent check plants and
Y=No. of live nymphs on treated plants.
Biological Data for Green Peach Aphid (MYZUPE) and Sweetpotato Whitefly-crawler (WF) (BEMITA)” (see Table section).
as §1

Row | Structure (SMILES) | mortality at 200 ppm [1] | mortality at 200 ppm [2]
1 | Clc1ccccc1-c1cn(-c2cccnc2)nn1 [Compound F1] | 0 to 80% | 0 to 80%
2 | FC(F)(F)c1ccc(-c2cn(-c3cccnc3)nn2)cn1 [Compound F2, 5-[1-(Pyridin-3-yl)-1H-1,2,3-triazol-4-yl]-2-(trifluoromethyl)pyridine] | 80 to 100% | 0 to 80%
3 | CSc1cccc(-c2cn(-c3cccnc3)nn2)c1 [Compound F3] | 80 to 100% | < 0%
4 | Cc1ccc(-c2cn(-c3cccnc3)nn2)nc1 [Compound F4, 5-Methyl-2-[1-(pyridin-3-yl)-1H-1,2,3-triazol-4-yl]pyridine] | 80 to 100% | 80 to 100%
5 | COc1cccc(-c2cn(-c3cccnc3)nn2)n1 [Compound F5, 2-Methoxy-6-[1-(pyridin-3-yl)-1H-1,2,3-triazol-4-yl]pyridine] | 80 to 100% | 0 to 80%
6 | FC(F)(F)Oc1cccc(-c2cn(-c3cccnc3)nn2)c1 [Compound F6, 3-(4-(3-(trifluoromethoxy)phenyl)-1H-1,2,3-triazol-1-yl)pyridine] | 80 to 100% | 0 to 80%
7 | FC(F)(F)c1cccc(-c2cn(-c3cccnc3)nn2)n1 [Compound F7, 2-[1-(pyridin-3-yl)-1H-1,2,3-triazol-4-yl]-6-(trifluoromethyl) pyridine] | 80 to 100% | 80 to 100%
8 | FC(F)(F)c1ccc(-c2cn(-c3cccnc3)nn2)nc1 [Compound F8, 2-[1-(Pyridin-3-yl)-1H-1,2,3-triazol-4-yl]-5-(trifluoromethyl)pyridine] | 80 to 100% | 80 to 100%
9 | Brc1cccc(-c2cn(-c3cccnc3)nn2)n1 [Compound F9, 2-Bromo-6-[1-(pyridin-3-yl)-1H-1,2,3-triazol-4-yl]pyridine] | 80 to 100% | 0 to 80%
10 | Clc1cccc(-c2cn(-c3cccnc3)nn2)n1 [Compound F10, 2-Chloro-6-[1-(pyridin-3-yl)-1H-1,2,3-triazol-4-yl]pyridine] | 80 to 100% | 0 to 80%
11 | Clc1cccc(-c2cn(-c3cccnc3)nn2)c1 [Compound F11] | 0 to 80% | < 0%
12 | Cc1cccc(-c2cn(-c3cccnc3)nn2)n1 [Compound F12, 2-methyl-6-(1-(pyridin-3-yl)-1H-1,2,3-triazol-4-yl)pyridine] | 80 to 100% | 80 to 100%
13 | FC(F)(F)c1cccc(-c2cn(-c3cccnc3)nn2)c1 [Compound F13] | 80 to 100% | < 0%

Reference: US9491944B2, “Pesticidal compositions and related methods” (DOW AGROSCIENCES LLC, priority 2013, dated 2016)
